# Patent US8293732B2, “Antibacterial quinoline derivatives” (Janssen Pharmaceutica N.V., priority 2006, dated 2012)
# Experiments:
# Format in all cases: cell-based
# [1] = test system: Staphylococcus aureus (ATCC29213); assay: In-vitro anti-bacterial microtitre plate assay, IC90 determination (STA 1 B29213); conditions: 90% inhibitory concentration for bacterial growth, 37° C., resazurin fluorescence; for IC90 values STA 1 B29213: 24 hours; for IC90: Staphylococcus aureus, ATCC29213, 24 h
# Protocol: (§1) The bacteria used in this study were grown overnight in flasks containing 100 ml Mueller-Hinton Broth (Becton Dickinson—cat. no. 275730) in sterile de-ionized water, with shaking, at 37° C. Stocks (0.5 ml/tube) were stored at −70° C. until use. Bacteria titrations were performed in microtiter plates to detect the TCID50, in which the TCID50 represents the dilution that gives rise to bacterial growth in 50% of inoculated cultures.
# (§2) In general, an inoculum level of approximately 100 TCID50 was used for susceptibility testing.
# (§3) Flat-bottom, sterile 96-well plastic microtiter plates were filled with 180 μl of sterile deionized water, supplemented with 0.25% BSA. Subsequently, stock solutions (7.8× final test concentration) of compounds were added in 45 μl volumes in column 2. Serial five-fold dilutions (45 μl in 180 μl) were made directly in the microtiter plates from column 2 to reach column 11. Untreated control samples with (column 1) and without (column 12) inoculum were included in each microtiter plate. Depending on the bacteria type, approximately 10 to 60 CFU per well of bacteria inoculum (100 TCID50), in a volume of 100 μl in 2.8× Mueller-Hinton broth medium, was added to the rows A to H, except column 12. The same volume of broth medium without inoculum was added to column 12 in row A to H. The cultures were incubated at 37° C. for 24 hours under a normal atmosphere (incubator with open air valve and continuous ventilation). At the end of incubation, one day after inoculation, the bacterial growth was quantitated fluorometrically. Therefore resazurin (0.6 mg/ml) was added in a volume of 20 μl to all wells 3 hours after inoculation, and the plates were re-incubated overnight. A change in colour from blue to pink indicated the growth of bacteria. The fluorescence was read in a computer-controlled fluorometer (Cytofluor Biosearch) at an excitation wavelength of 530 nm and an emission wavelength of 590 nm. The % growth inhibition achieved by the compounds was calculated according to standard methods.
# (§4) STA 29213 means Staphylococcus aureus (ATCC29213); SPN 6305 means Streptococcus pneumoniae (ATCC6305); MSM 607 means M. Smegmatis (ATCC607); ATCC means […].
# [2] = test system: Streptococcus pneumoniae (ATCC6305); assay: In-vitro anti-bacterial microtitre plate assay, IC90 determination (SPN 1 6305); conditions: 90% inhibitory concentration for bacterial growth, 37° C., resazurin fluorescence; for IC90 values SPN 1 6305: 24 hours; for IC90: Streptococcus pneumoniae, ATCC6305, 24 h
# Protocol: as §1, §2, §3, §4
# M. Smegmatis (ATCC607) = assay: In-vitro anti-bacterial activity against strain M. Smegmatis ATCC607; conditions: 90% inhibitory concentration for bacterial growth, 37° C., Alamar Blue fluorescence; for IC90: Mycolicibacterium smegmatis, ATCC607, 48 h, read-out: IC90 values MSM 1 ATCC607; for IC90 values MSM 1 ATCC607: 48 hours
# Protocol: Flat-bottom, sterile 96-well plastic microtiter plates were filled with 180 μl of sterile deionized water, supplemented with 0.25% BSA. Subsequently, stock solutions (7.8× final test concentration) of compounds were added in 45 μl volumes to a series of duplicate wells in column 2 so as to allow evaluation of their effects on bacterial growth. Serial five-fold dilutions (45 μl in 180 μl) were made directly in the microtiter plates from column 2 to 11 using a customised robot system (Zymark Corp., Hopkinton, Mass.). Pipette tips were changed after every 3 dilutions to minimize pipetting errors with high hydrophobic compounds. Untreated control samples with (column 1) and without (column 12) inoculum were included in each microtiter plate. Approximately 250 CFU per well of bacteria inoculum, in a volume of 100 μl in 2.8× Mueller-Hinton broth medium, was added to the rows A to H, except column 12. The same volume of broth medium without inoculum was added to column 12 in row A to H. The cultures were incubated at 37° C. for 48 hours in a humidified 5% CO2 atmosphere (incubator with open air valve and continuous ventilation). At the end of incubation, two days after inoculation, the bacterial growth was quantitated fluorometrically. Therefore Alamar Blue (10×) was added to all wells in a volume of 20 μl and plates were incubated for another 2 hours at […]
# The fluorescence was read in a computer-controlled fluorometer (Cytofluor, Biosearch) at an excitation wavelength of 530 nm and an emission wavelength of 590 nm (gain 30).
# as §4
Structure (SMILES),IC90 values STA 1 B29213 [1],IC90 values SPN 1 6305 [2],IC90 [1],IC90 [2],IC90 (M. Smegmatis (ATCC607)),IC90 values MSM 1 ATCC607 (M. Smegmatis (ATCC607))
"COc1nc2ccc(Br)cc2cc1C(c1ccc(Cl)cc1)C(O)(CCCCN(C)C)COc1ccccc1 (single isomer, unassigned) [Compound 3]",9.5 µg/mL,11.9 µg/mL,–,–,1.7 µg/mL,–
"COc1nc2ccccc2cc1C(c1ccc(-c2cccnc2)cc1)C(O)(CCCCN(C)C)c1ccc2ccccc2c1 (single isomer, unassigned) [Compound 7]",–,–,1.8 µg/mL,1.8 µg/mL,1.8 µg/mL,–
"COc1nc2ccccc2cc1C(c1ccc(-c2cccnc2)cc1)C(O)(CCCCN(C)C)c1ccc2ccccc2c1 (single isomer, unassigned) [Compound 7b]",1.8 µg/mL,1.85 µg/mL,–,–,–,1.5 µg/mL
"COc1nc2ccccc2cc1C(c1ccc(-c2ccoc2)cc1)C(O)(CCCCN(C)C)c1ccc2ccccc2c1 (single isomer, unassigned) [Compound 12]",–,–,1.8 µg/mL,2 µg/mL,1.8 µg/mL,–
"COc1nc2ccccc2cc1C(c1ccc(-c2cccs2)cc1)C(O)(CCCCN(C)C)c1ccc2ccccc2c1 (single isomer, unassigned) [Compound 14]",–,–,1.9 µg/mL,2.3 µg/mL,1.9 µg/mL,–
"COc1nc2ccccc2cc1C(c1ccc(-c2cccs2)cc1)C(O)(CCCCN(C)C)c1ccc2ccccc2c1 (single isomer, unassigned) [Compound 15]",1.9 µg/mL,2.3 µg/mL,–,–,–,–
"COc1nc2ccc(Br)cc2cc1C(c1ccccc1)C(O)(CCCCN1CCN(C)CC1)COc1ccc(C)cc1 (single isomer, unassigned) [Compound 23]",2.0 µg/mL,2.0 µg/mL,–,–,–,2.0 µg/mL
"COc1nc2ccc(Br)cc2cc1C(c1ccccc1)C(O)(CCCCN1CCCCC1)COCc1ccccc1 (single isomer, unassigned) [Compound 25]",2.5 µg/mL,2.0 µg/mL,–,–,–,2.0 µg/mL
"COc1nc2ccc(Br)cc2cc1C(c1ccccc1)C(O)(CCCCN1CCN(C)CC1)COCc1ccccc1 (single isomer, unassigned) [Compound 27]",4.5 µg/mL,2.2 µg/mL,–,–,–,2.0 µg/mL
"COc1nc2ccc(Br)cc2cc1C(c1ccccc1)C(O)(CCCCCN(C)C)c1cccc(-c2ccccc2)c1 (single isomer, unassigned) [Compound 35]",–,–,1.97 µg/mL,–,1.76 µg/mL,–
"COc1nc2ccc(Br)cc2cc1C(c1ccccc1)C(O)(CCCCCN(C)C)c1cccc(-c2ccccc2)c1 (single isomer, unassigned) [Compound 36]",1.97 µg/mL,–,–,–,–,1.76 µg/mL
"COc1nc2ccc(Br)cc2cc1C(c1ccccc1)C(O)(CCCCCN(C)C)c1cccc(/C=C/c2ccccc2)c1 (single isomer, unassigned) [Compound 37]",–,–,2.05 µg/mL,–,1.63 µg/mL,–
"COc1nc2ccc(Br)cc2cc1C(c1ccccc1)C(O)(CCCCN(C)C)c1cccc(-c2ccc(C)cc2)c1 (single isomer, unassigned) [Compound 42]",2.21 µg/mL,–,–,–,–,0.79 µg/mL
"COc1nc2ccccc2cc1C(c1ccc(-c2ccncc2)cc1)C(O)(CCCCN(C)C)c1ccc2ccccc2c1 (single isomer, unassigned) [Compound 43]",4.60 µg/mL,–,–,–,–,0.37 µg/mL
"COc1nc2ccccc2cc1C(c1ccc(-c2cnc3ccccc3c2)cc1)C(O)(CCCCN(C)C)c1ccc2ccccc2c1 (single isomer, unassigned) [Compound 50]",25.15 µg/mL,–,–,–,–,22.42 µg/mL
"COc1nc2ccc(Br)cc2cc1C(c1ccoc1)C(O)(CCN(C)C)c1ccccc1 (single isomer, unassigned) [Compound 51]",–,–,39.4 µg/mL,–,–,1.57 µg/mL
"COc1nc2ccc(Br)cc2cc1C(c1ccoc1)C(O)(CCc1ccc(F)cc1)CCN(C)C (single isomer, unassigned) [Compound 54]",8.58 µg/mL,–,–,–,–,1.92 µg/mL
COc1nc2ccc(Br)cc2cc1C(c1ccccc1)C(O)(CCCCN(C)C)c1cccc(/C=C/c2ccccc2)c1 (stereo not drawn) [Compound 44],–,–,1.79 µg/mL,–,–,0.90 µg/mL
COc1nc2ccc(Br)cc2cc1C(c1ccccc1)C(O)(CCCCN(C)C)c1cccc(/C=C/c2ccccc2)c1 (stereo not drawn) [Compound 45],2.01 µg/mL,–,–,–,–,2.01 µg/mL
COc1nc2ccc(Br)cc2cc1C(c1ccccc1)C(O)(CCCCN(C)C)c1cccc(/C=C/c2ccccc2)c1 (stereo not drawn) [Compound 47],2.01 µg/mL,–,–,–,–,2.01 µg/mL

# More lines, main results first:
IC90 values STA 1 B29213 [1],IC90 values SPN 1 6305 [2],IC90 [1],IC90 [2],Structure (SMILES),IC90 (M. Smegmatis (ATCC607)),IC90 values MSM 1 ATCC607 (M. Smegmatis (ATCC607))
9.2 µg/mL,–,–,1.8 µg/mL,"COc1nc2ccccc2cc1C(c1cccc(-c2ccncc2)c1)C(O)(CCCCN(C)C)c1ccc2ccccc2c1 (single isomer, unassigned) [Compound 8]",1.8 µg/mL,–
1.8 µg/mL,1.8 µg/mL,–,–,"COc1nc2ccccc2cc1C(c1cccc(-c2ccncc2)c1)C(O)(CCCCN(C)C)c1ccc2ccccc2c1 (single isomer, unassigned) [Compound 9]",–,1.5 µg/mL
1.9 µg/mL,1.9 µg/mL,–,–,"COc1nc2ccccc2cc1C(c1ccc(-c2cnn(C)c2)cc1)C(O)(CCCCN(C)C)c1ccc2ccccc2c1 (single isomer, unassigned) [Compound 11]",–,1.9 µg/mL
4.4 µg/mL,2.5 µg/mL,–,–,"COc1nc2ccc(Br)cc2cc1C(c1ccccc1)C(O)(CCCCN1CCN(C)CC1)COc1ccccc1 (single isomer, unassigned) [Compound 19]",–,2.0 µg/mL
2.1 µg/mL,2.6 µg/mL,–,–,"COc1nc2ccc(Br)cc2cc1C(c1ccc(Cl)cc1)C(O)(CCCCN1CCN(C)CC1)COc1ccccc1 (single isomer, unassigned) [Compound 21]",–,2.1 µg/mL
–,–,2 µg/mL,2 µg/mL,"COc1nc2ccc(Br)cc2cc1C(c1ccccc1)C(O)(CCCCN1CCCCC1)COCc1ccccc1 (single isomer, unassigned) [Compound 26]",2 µg/mL,–
2.00 µg/mL,–,–,–,"COc1nc2ccccc2cc1C(c1ccc(-c2cnc3ccccc3c2)cc1)C(O)(CCCCN(C)C)c1ccc2ccccc2c1 (single isomer, unassigned) [Compound 49]",–,2.00 µg/mL
49.54 µg/mL,–,–,–,"COc1nc2ccc(Br)cc2cc1C(c1ccoc1)C(O)(CCN(C)C)c1ccccc1 (single isomer, unassigned) [Compound 52]",–,0.06 µg/mL
2.01 µg/mL,–,–,–,COc1nc2ccc(Br)cc2cc1C(c1ccccc1)C(O)(CCCCN(C)C)c1cccc(/C=C/c2ccccc2)c1 (stereo not drawn) [Compound 46],–,2.01 µg/mL
